Key:
[1] = system: A549, HEK-293, and J774A.1 cells; test: Mammalian cytotoxicity; conditions: positive control treatment
Mtb H37Rv = assay type: cell-based, Mycobacterium tuberculosis

## Triton X-100
[1]
  cytotoxicity: most of the cells killed

## kanamycin A
Mtb H37Rv
  H37Rv MICKAN: 1.25 µg/mL

Reference: paper PMC5971065 (ACS infectious diseases, 2017)
